Source: patent publication US20240132525A1, “BORON […], CO[…], METHODS AND USES THEREOF” (priority 2022, published 2024)
pIC50: −log10 of the molar value. Structures can show the parent of a compound that is named as a salt. Where two headings read alike, the source gives them in different places.

What was measured:
[1] = biological target: JAK2 (Homo sapiens (Human), UniProt O60674); experiment: Biochemical kinase assay (33P-ATP filter-binding), JAK2; conditions: read-out: IC50 JAK2
Description: (§1) Biochemical Kinase Assay Protocol (JAK)
(§2) Reaction Procedure: • 1. […] Detected kinase activity by filter-binding method.

[2] = biological target: JAK1 (Homo sapiens (Human), UniProt P23458); experiment: Biochemical kinase assay (33P-ATP filter-binding), JAK1; conditions: read-out: IC50 JAK1
Sequence of JAK1 (P23458 whole entry, species assumed): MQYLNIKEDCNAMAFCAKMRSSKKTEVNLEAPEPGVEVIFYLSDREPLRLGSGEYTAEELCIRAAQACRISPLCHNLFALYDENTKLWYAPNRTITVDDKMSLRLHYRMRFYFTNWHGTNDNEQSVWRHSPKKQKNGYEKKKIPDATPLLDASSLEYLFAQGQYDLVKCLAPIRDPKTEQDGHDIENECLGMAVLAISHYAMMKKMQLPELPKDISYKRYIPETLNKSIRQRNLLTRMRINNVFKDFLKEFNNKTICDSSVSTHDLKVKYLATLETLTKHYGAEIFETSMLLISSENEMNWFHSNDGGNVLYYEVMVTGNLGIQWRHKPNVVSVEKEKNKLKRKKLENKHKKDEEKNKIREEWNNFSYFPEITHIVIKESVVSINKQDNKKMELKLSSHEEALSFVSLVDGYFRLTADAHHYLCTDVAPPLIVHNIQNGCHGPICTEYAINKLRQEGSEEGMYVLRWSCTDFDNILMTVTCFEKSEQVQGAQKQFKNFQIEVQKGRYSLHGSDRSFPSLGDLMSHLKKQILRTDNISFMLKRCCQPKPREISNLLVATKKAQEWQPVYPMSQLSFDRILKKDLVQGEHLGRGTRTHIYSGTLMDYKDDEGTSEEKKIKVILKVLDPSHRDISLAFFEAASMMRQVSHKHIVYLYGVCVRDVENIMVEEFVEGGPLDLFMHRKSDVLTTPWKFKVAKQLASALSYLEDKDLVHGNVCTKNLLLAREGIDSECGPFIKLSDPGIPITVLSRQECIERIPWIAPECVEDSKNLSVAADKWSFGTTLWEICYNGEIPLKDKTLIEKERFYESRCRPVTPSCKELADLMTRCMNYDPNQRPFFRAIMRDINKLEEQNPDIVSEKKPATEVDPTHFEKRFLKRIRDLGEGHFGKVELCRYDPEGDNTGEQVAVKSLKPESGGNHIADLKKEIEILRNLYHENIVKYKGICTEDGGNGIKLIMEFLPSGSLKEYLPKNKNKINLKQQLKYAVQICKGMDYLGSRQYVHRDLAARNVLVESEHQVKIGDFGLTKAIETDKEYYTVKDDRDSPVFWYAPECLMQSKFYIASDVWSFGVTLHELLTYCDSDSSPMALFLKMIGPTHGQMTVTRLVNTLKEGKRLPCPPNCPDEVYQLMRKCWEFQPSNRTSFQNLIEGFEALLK
Description: as §1, §2

[3] = Dog LM (liver microsome) assay; type: in vitro ADME; conditions: Table 3a; predicted clearance as percent of liver blood flow, 1 μM, 1 mg/ml microsomal protein
Description: Dog LM (Liver Microsome) Assay
The metabolic degradation of the test compound is assayed at 37° C. with pooled liver microsomes from dogs (Beagle). The final incubation volume of 100 μl per time point contains TRIS buffer pH 7.6 at RT (0.1 M), magnesium chloride (5 mM), microsomal protein (1 mg/ml) and the test compound at a final concentration of 1 μM. Following a short preincubation period at 37° C., the reactions were initiated by addition of beta-nicotinamide adenine dinucleotide phosphate, reduced form (NADPH, 1 mM) and terminated by transferring an aliquot into solvent after different time points. Additionally, the NADPH-independent degradation was monitored in incubations without NADPH, terminated at the last time point. The [%] remaining test compound after NADPH independent incubation is reflected by the parameter c (control) (metabolic stability). The quenched incubations are pelleted by centrifugation (10000 g, 5 min). An aliquot of the supernatant is assayed by LC-MS/MS for the amount of parent compound. The half-life (t½ INVITRO) is determined by the slope of the semilogarithmic plot of the concentration-time profile. The intrinsic clearance (CL_[…]) is calculated by considering the amount of protein in the incubation: CL_[…] [μl/min/mg protein]=(Ln 2/(half-life [min]*protein content [mg/ml]))*1000. For better across species comparison the predicted clearance is expressed as percent of the liver blood flow [% QH] in the individual species. In general, high stability (corresponding to low % QH) of the compounds across species is desired.

Sequence of JAK2 (O60674 whole entry, species assumed): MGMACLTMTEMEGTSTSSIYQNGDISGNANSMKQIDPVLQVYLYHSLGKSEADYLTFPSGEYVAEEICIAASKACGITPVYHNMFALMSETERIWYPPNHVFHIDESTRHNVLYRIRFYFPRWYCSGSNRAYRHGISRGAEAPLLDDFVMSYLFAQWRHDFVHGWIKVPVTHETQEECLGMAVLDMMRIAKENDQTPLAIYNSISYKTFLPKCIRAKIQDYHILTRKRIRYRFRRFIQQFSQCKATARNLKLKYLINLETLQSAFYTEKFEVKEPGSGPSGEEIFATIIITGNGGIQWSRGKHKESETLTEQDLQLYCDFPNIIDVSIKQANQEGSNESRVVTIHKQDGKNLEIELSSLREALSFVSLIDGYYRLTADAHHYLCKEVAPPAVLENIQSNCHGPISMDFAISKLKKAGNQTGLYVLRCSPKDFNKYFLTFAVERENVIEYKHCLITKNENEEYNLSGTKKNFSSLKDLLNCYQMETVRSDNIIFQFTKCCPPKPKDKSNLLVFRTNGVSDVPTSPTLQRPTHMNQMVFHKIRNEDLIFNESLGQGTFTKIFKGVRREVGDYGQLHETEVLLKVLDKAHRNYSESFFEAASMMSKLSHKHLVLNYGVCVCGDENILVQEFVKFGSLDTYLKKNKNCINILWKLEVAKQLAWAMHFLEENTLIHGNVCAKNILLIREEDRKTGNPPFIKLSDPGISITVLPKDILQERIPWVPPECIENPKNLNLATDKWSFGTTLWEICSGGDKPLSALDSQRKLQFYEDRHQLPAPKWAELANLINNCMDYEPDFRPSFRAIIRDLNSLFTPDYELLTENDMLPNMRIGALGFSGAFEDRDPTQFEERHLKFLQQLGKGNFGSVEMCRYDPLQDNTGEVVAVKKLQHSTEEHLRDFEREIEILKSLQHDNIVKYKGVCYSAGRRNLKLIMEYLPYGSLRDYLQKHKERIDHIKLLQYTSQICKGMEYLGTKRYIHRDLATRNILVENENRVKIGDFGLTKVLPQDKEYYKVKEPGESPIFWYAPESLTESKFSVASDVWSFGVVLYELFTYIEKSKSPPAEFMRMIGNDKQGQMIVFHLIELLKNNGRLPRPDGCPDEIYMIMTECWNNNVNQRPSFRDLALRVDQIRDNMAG

| Structure (SMILES) | pIC50 ([1]; Table 3a) | pIC50 ([2]; Table 3a) | Dog LM QH [3] | pIC50 ([1]; Table 3b, comparator compounds) | pIC50 ([2]; Table 3b, comparator compounds) |
| --- | --- | --- | --- | --- | --- |
| Cc1cnc(Nc2cc3c4c(c2)OCCOB4OC3)nc1N[C@@H]1CCC[C@H]1C#N (relative stereo) [Example 004, (trans)-2-((2-((7,8-dihydro-2H-1,6,9-trioxa-9a-borabenzo [cd]azulen-4-yl)amino)-5-methylpyrimidin-4-yl)amino)cyclopentane-1-carbonitrile] | 7.30 | 8.80 |  |  |  |
| Cc1cnc(Nc2ccc3c(c2)C=CB(O)O3)nc1N[C@@H]1CCC[C@H]1C#N (relative stereo) [Example 007, (trans)-2-((2-((2-hydroxy-2H-benzo[e][1,2]oxaborinin-6-yl)amino)-5-methylpyrimidin-4-yl)amino)cyclopentane-1-carbonitrile] | 7.28 | 8.28 |  |  |  |
| Cc1cnc(Nc2cc(C)c3c(c2)COB3O)nc1N[C@@H]1CCCC[C@H]1C#N (relative stereo) [Example 009, (trans)-2-((2-((1-hydroxy-7-methyl-1,3-dihydrobenzo[c][1,2]oxaborol-5-yl)amino)-5-methylpyrimidin-4-yl)amino)cyclohexane-1-carbonitrile] | 7.86 | 8.96 | <19.9% |  |  |
| Cc1cnc(Nc2ccc3c(c2)C(C)(C)OB3O)nc1N[C@@H]1CCCC[C@H]1C#N (relative stereo) [Example 014, (trans)-2-[[2-[(1-hydroxy-3,3-dimethyl-2,1-benzoxaborol-5-yl)amino]-5-methylpyrimidin-4-yl]amino]cyclohexanecarbonitrile hydrochloride] | 8.20 | 8.85 | 48.7% |  |  |
| Cc1cnc(Nc2ccc3c(c2)C=CB(O)O3)nc1N[C@@H]1CCCC[C@H]1C#N (relative stereo) [Example 015, (trans)-2-[[2-[(2-hydroxy-1,2-benzoxaborinin-6-yl)amino]-5-methyl-pyrimidin-4-yl]amino]cyclohexanecarbonitrile] | 6.99 | 8.05 |  |  |  |
| CC1=Cc2cc(Nc3ncc(C)c(N[C@@H]4CCCC[C@H]4C#N)n3)ccc2OB1O (relative stereo) [Example 016, (trans)-2-((2-((2-hydroxy-3-methyl-2H-benzo[e][1,2]oxaborinin-6-yl)amino)-5-methylpyrimidin-4-yl)amino)cyclohexane-1-carbonitrile] | 7.76 | 8.60 | 70.2% |  |  |
| Cc1cnc(Nc2cc(C#N)c3c(c2)COB3O)nc1N[C@@H]1CCC[C@H]1C#N (relative stereo) [Example 018, 5-((4-(((trans)-2-cyanocyclopentyl)amino)-5-methylpyrimidin-2-yl)amino)-1-hydroxy-1,3-dihydrobenzo[c][1,2]oxaborole-7-carbonitrile] | 7.98 | 9.30 | <19.9% |  |  |
| N#C[C@@H]1CCCC[C@H]1Nc1nc(Nc2cc(Cl)c3c(c2)COB3O)ncc1Cl (relative stereo) [Example 019, (trans)-2-((5-chloro-2-((7-chloro-1-hydroxy-1,3-dihydrobenzo[c][1,2]oxaborol-5-yl)amino)pyrimidin-4-yl)amino)cyclohexane-1-carbonitrile] | 8.49 | 9.70 |  |  |  |
| N#C[C@@H]1CCCC[C@H]1Nc1nc(Nc2cc(Cl)c3c(c2)COB3O)ncc1F (relative stereo) [Example 020, (trans)-2-[[2-[(7-chloro-1-hydroxy-3H-2,1-benzoxaborol-5-yl)amino]-5 fluoropyrimidin-4-yl]amino]cyclohexanecarbonitrile] | 7.29 | 8.85 |  |  |  |
| N#C[C@@H]1CCCC[C@H]1Nc1nc(Nc2cc(Cl)c3c(c2)COB3O)ncc1C(F)(F)F (relative stereo) [Example 021, (trans)-2-((2-((7-chloro-1-hydroxy-1,3-dihydrobenzo[c][1,2]oxaborol-5-yl)amino)-5-(trifluoromethyl)pyrimidin-4-yl)amino)cyclohexanecarbonitrile] | 8.49 | 8.57 |  |  |  |
| N#C[C@@H]1CCC[C@H]1Nc1nc(Nc2cc(Cl)c3c(c2)COB3O)ncc1C(F)(F)F (relative stereo) [Example 022, (trans)-2-[[2-[(7-chloro-1-hydroxy-3H-2,1-benzoxaborol-5-yl)amino]-5-(trifluoromethyl)pyrimidin-4-yl]amino]cyclopentanecarbonitrile] | 8.12 | 8.48 |  |  |  |
| N#C[C@@H]1CCCC[C@H]1Nc1nc(Nc2cc(F)c3c(c2)COB3O)ncc1Cl (relative stereo) [Example 023, (trans)-2-((5-chloro-2-((7 fluoro-1-hydroxy-1,3-dihydrobenzo[c][1,2]oxaborol-5-yl)amino)pyrimidin-4-yl)amino)cyclohexane-1-carbonitrile] | 9.22 | 9.70 |  |  |  |
| Cc1cnc(Nc2cc3c(c(C4CC4)c2)B(O)OC3)nc1N[C@@H]1COCC[C@H]1C#N (relative stereo) [Example 025, (trans)-3-[[2-[(7-cyclopropyl-1-hydroxy-3H-2,1-benzoxaborol-5-yl)amino]-5-methyl-pyrimidin-4-yl]amino]tetrahydropyran-4-carbonitrile] | 7.62 | 9.40 | <19.9% |  |  |
| Cc1cnc(Nc2cc(C#N)c3c(c2)COB3O)nc1N[C@@H]1COCC[C@H]1C#N (relative stereo) [Example 045, 5-((4-(((trans)-4-cyanotetrahydro-2H-pyran-3-yl)amino)-5-methylpyrimidin-2-yl)amino)-1-hydroxy-1,3-dihydrobenzo[c][1,2]oxaborole-7-carbonitrile] | 7.97 | 9.30 |  |  |  |
| N#C[C@@H]1CCOC[C@H]1Nc1nc(Nc2cc(Cl)c3c(c2)COB3O)ncc1F (relative stereo) [Example 046, (trans)-3-((2-((7-chloro-1-hydroxy-1,3-dihydrobenzo[c][1,2]oxaborol-5-yl)amino)-5-fluoropyrimidin-4-yl)amino) tetrahydro-2H-pyran-4-carbonitrile] | 6.73 | 8.47 |  |  |  |
| N#C[C@@H]1CCOC[C@H]1Nc1nc(Nc2ccc3c(c2)COB3O)ncc1Cl (relative stereo) [Example 047, (trans)-3-((5-chloro-2-((1-hydroxy-1,3-dihydrobenzo[c][1,2]oxaborol-5-yl)amino)pyrimidin-4-yl)amino)tetrahydro-2H-pyran-4-carbonitrile] | 8.12 | 9.47 |  |  |  |
| N#C[C@@H]1CCOC[C@H]1Nc1nc(Nc2cc(Cl)c3c(c2)COB3O)ncc1Cl (relative stereo) [Example 048, (trans)-3-[[5-chloro-2-[(7-chloro-1-hydroxy-3H-2,1-benzoxaborol-5-yl)amino]pyrimidin-4-yl]amino]tetrahydropyran-4-carbonitrile] | 7.81 | 9.22 |  |  |  |
| Cc1cnc(Nc2cc(Cl)c3c(c2)COB3O)nc1NC1CCCC[C@@H]1C#N (single isomer, unassigned) [Example 010b, (trans)-2-[[2-[(7-chloro-1-hydroxy-3H-2,1-benzoxaborol-5-yl)amino]-5-methyl-pyrimidin-4-yl]amino]cyclohexanecarbonitrile] |  |  | <19.9% |  |  |
| Cc1cnc(Nc2cc(Cl)c3c(c2)COB3O)nc1N[C@H]1CCCC[C@@H]1C#N (single isomer, unassigned) [Example 010b, (trans)-2-[[2-[(7-chloro-1-hydroxy-3H-2,1-benzoxaborol-5-yl)amino]-5-methyl-pyrimidin-4-yl]amino]cyclohexanecarbonitrile] | 6.09 | 7.65 |  |  |  |
| Cc1cnc(Nc2cc(Cl)c3c(c2)COB3O)nc1N[C@@H]1COCC[C@H]1C#N (single isomer, unassigned) [Example 031a, (trans)-3-((2-((7-chloro-1-hydroxy-1,3-dihydrobenzo[c][1,2]oxaborol-5-yl)amino)-5-methylpyrimidin-4-yl)amino)tetrahydro-2H-pyran-4-carbonitrile] |  |  | <19.9% |  |  |
| Cc1cnc(Nc2cc3c4c(c2)OCCOB4OC3)nc1NC1CCCCC1C#N (stereo not drawn) [Example 013, (trans)-2-((2-((7,8-dihydro-2H-1,6,9-trioxa-9a-borabenzo[c,d]azulen-4-yl)amino)-5-methylpyrimidin-4-yl)amino)cyclohexane-1-carbonitrile] | 7.00 | 8.59 |  |  |  |
| Cc1cc(Nc2ncc(Cl)c(NC3CCCCC3C#N)n2)cc2c1B(O)OC2 (stereo not drawn) [Example 024, 2-[[5-chloro-2-[(1-hydroxy-7-methyl-3H-2,1-benzoxaborol-5-yl)amino]pyrimidin-4-yl]amino]cyclohexanecarbonitrile] | 7.95 | 8.23 |  |  |  |
| Cc1cnc(Nc2ccc3c(c2)C(C)OB3O)nc1NC1COCCC1C#N (stereo not drawn) [Example 028, (trans)-3-[[2-[(1-hydroxy-3-methyl-3H-2,1-benzoxaborol-5-yl)amino]-5-methyl-pyrimidin-4-yl]amino]tetrahydropyran-4-carbonitrile] | 8.46 | 9.30 |  |  |  |
| OB1OCc2cc(Nc3ncc(F)c(NC4CCCC4)n3)ccc21 [Example C013] |  |  |  | 6.15 | 7.49 |
